ChEMBL document CHEMBL1201862, “PubChem BioAssay data set” (2004)
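These data come from cells grown in 96-well plates and exposed to compound for 48 hours at five concentrations. GI50 = concentration required for 50% inhibition of growth.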 The source made the active and inactive calls. Cut-off read from the data, not from the text of the source: active = GI50 up to about 1.1 µM and inactive = higher.

Key:
Assay in all cases: NCI tumour cell line growth inhibition, 48 h
CCRF-CEM = system: CCRF-CEM
HCT-15 = system: HCT-15
MCF7 = system: MCF7
A549 = system: A549
NCI-H23 = system: NCI-H23
HT-29 = system: HT-29
TK-10 = system: TK-10
SNB-19 = system: SNB-19
UACC-257 = system: UACC-257
PC-3 = system: PC-3
SK-MEL-2 = system: SK-MEL-2
NCI-H226 = system: NCI-H226
MDA-N = system: MDA-N
LOX IMVI = system: LOX IMVI
HCC 2998 = system: HCC 2998
SF-539 = system: SF-539
SW-620 = system: SW-620
OVCAR-5 = system: OVCAR-5
OVCAR-3 = system: OVCAR-3
T47D = system: T47D
DU-145 = system: DU-145
UACC-62 = system: UACC-62
MDA-MB-435 = system: MDA-MB-435
OVCAR-8 = system: OVCAR-8
SK-MEL-28 = system: SK-MEL-28
CAKI-1 = system: CAKI-1
HCT-116 = system: HCT-116
HOP-92 = system: HOP-92
RPMI-8226 = system: RPMI-8226
KM12 = system: KM12
M14 = system: M14
EKVX = system: EKVX
OVCAR-4 = system: OVCAR-4
SK-OV-3 = system: SK-OV-3
COLO 205 = system: COLO 205
MDA-MB-231 = system: MDA-MB-231
BT-549 = system: BT-549
SNB-75 = system: SNB-75
786-0 = system: 786-0
Hs-578T = system: Hs-578T
HL-60 = system: HL-60
K562 = system: K562
IGROV-1 = system: IGROV-1
SF-268 = system: SF-268
NCI-H460 = system: NCI-H460
NCI-H522 = system: NCI-H522
SK-MEL-5 = system: SK-MEL-5
U-251 = system: U-251
HOP-62 = system: HOP-62
SF-295 = system: SF-295
Malme-3M = system: Malme-3M
UO-31 = system: UO-31
ACHN = system: ACHN
A498 = system: A498
MOLT-4 = system: MOLT-4
SR = system: SR
SN12C = system: SN12C
NCI/ADR-RES = system: NCI/ADR-RES
RXF 393 = system: RXF 393

O=C(Nc1ccc2ccccc2c1)Nn1cnnc1
GI50 (CCRF-CEM): > 100 µM (inactive)
GI50 (HCT-15): > 100 µM
GI50 (MCF7): > 100 µM (inactive)
GI50 (A549): > 100 µM (inactive)
GI50 (NCI-H23): > 100 µM (inactive)
GI50 (HT-29): > 100 µM (inactive)
GI50 (TK-10): > 100 µM (inactive)
GI50 (SNB-19): > 100 µM (inactive)
GI50 (UACC-257): > 100 µM (inactive)
GI50 (PC-3): > 100 µM (inactive)
GI50 (SK-MEL-2): > 100 µM (inactive)
GI50 (NCI-H226): 35.3 µM (inactive)
GI50 (MDA-N): > 100 µM (inactive)
GI50 (LOX IMVI): > 100 µM (inactive)
GI50 (HCC 2998): > 100 µM (inactive)
GI50 (SF-539): > 100 µM (inactive)
GI50 (SW-620): > 100 µM (inactive)
GI50 (OVCAR-5): > 100 µM (inactive)
GI50 (OVCAR-3): > 100 µM (inactive)
GI50 (T47D): > 100 µM (inactive)
GI50 (DU-145): > 100 µM (inactive)
GI50 (UACC-62): > 100 µM (inactive)
GI50 (MDA-MB-435): > 100 µM (inactive)
GI50 (OVCAR-8): > 100 µM (inactive)
GI50 (SK-MEL-28): > 100 µM (inactive)
GI50 (CAKI-1): > 100 µM (inactive)
GI50 (HCT-116): > 100 µM (inactive)
GI50 (HOP-92): > 100 µM (inactive)
GI50 (RPMI-8226): > 100 µM (inactive)
GI50 (KM12): > 100 µM (inactive)
GI50 (M14): > 100 µM (inactive)
GI50 (EKVX): > 100 µM (inactive)
GI50 (OVCAR-4): > 100 µM (inactive)
GI50 (SK-OV-3): > 100 µM (inactive)
GI50 (COLO 205): > 100 µM (inactive)
GI50 (MDA-MB-231): > 100 µM (inactive)
GI50 (BT-549): > 100 µM (inactive)
GI50 (SNB-75): > 100 µM (inactive)
GI50 (786-0): > 100 µM (inactive)
GI50 (Hs-578T): > 100 µM (inactive)
GI50 (HL-60): > 100 µM (inactive)
GI50 (K562): > 100 µM (inactive)
GI50 (IGROV-1): > 100 µM (inactive)
GI50 (SF-268): > 100 µM (inactive)
GI50 (NCI-H460): > 100 µM (inactive)
GI50 (NCI-H522): > 100 µM (inactive)
GI50 (SK-MEL-5): > 100 µM (inactive)
GI50 (U-251): > 100 µM (inactive)
GI50 (HOP-62): > 100 µM (inactive)
GI50 (SF-295): > 100 µM (inactive)
GI50 (Malme-3M): > 100 µM (inactive)
GI50 (UO-31): 80.4 µM (inactive)
GI50 (ACHN): > 100 µM (inactive)
GI50 (A498): > 100 µM (inactive)
GI50 (MOLT-4): > 100 µM (inactive)
GI50 (SR): > 100 µM (inactive)

Cc1nn(C(=O)Cc2ccccc2)c2c1C(c1ccccc1)SC(=N)N2 (configuration not stated)
GI50 (CCRF-CEM): > 100 µM (inactive)
GI50 (HCT-15): > 100 µM
GI50 (SN12C): > 100 µM (inactive)
GI50 (MCF7): > 100 µM (inactive)
GI50 (A549): > 100 µM (inactive)
GI50 (NCI-H23): > 100 µM (inactive)
GI50 (HT-29): > 100 µM (inactive)
GI50 (TK-10): > 100 µM (inactive)
GI50 (SNB-19): > 100 µM (inactive)
GI50 (UACC-257): > 100 µM (inactive)
GI50 (PC-3): > 100 µM (inactive)
GI50 (NCI-H226): > 100 µM (inactive)
GI50 (MDA-N): > 100 µM (inactive)
GI50 (LOX IMVI): > 100 µM (inactive)
GI50 (HCC 2998): > 100 µM (inactive)
GI50 (SF-539): > 100 µM (inactive)
GI50 (SW-620): > 100 µM (inactive)
GI50 (T47D): > 100 µM (inactive)
GI50 (DU-145): > 100 µM (inactive)
GI50 (UACC-62): > 100 µM (inactive)
GI50 (MDA-MB-435): > 100 µM (inactive)
GI50 (OVCAR-8): > 100 µM (inactive)
GI50 (SK-MEL-28): > 100 µM (inactive)
GI50 (CAKI-1): > 100 µM (inactive)
GI50 (HCT-116): > 100 µM (inactive)
GI50 (RPMI-8226): > 100 µM (inactive)
GI50 (KM12): > 100 µM (inactive)
GI50 (M14): > 100 µM (inactive)
GI50 (EKVX): > 100 µM (inactive)
GI50 (SK-OV-3): > 100 µM (inactive)
GI50 (COLO 205): > 100 µM (inactive)
GI50 (MDA-MB-231): > 100 µM (inactive)
GI50 (BT-549): > 100 µM (inactive)
GI50 (SNB-75): 43.5 µM (inactive)
GI50 (786-0): > 100 µM (inactive)
GI50 (Hs-578T): > 100 µM (inactive)
GI50 (HL-60): > 100 µM (inactive)
GI50 (K562): > 100 µM (inactive)
GI50 (IGROV-1): > 100 µM (inactive)
GI50 (SF-268): > 100 µM (inactive)
GI50 (NCI-H460): > 100 µM (inactive)
GI50 (NCI-H522): > 100 µM (inactive)
GI50 (SK-MEL-5): > 100 µM (inactive)
GI50 (HOP-62): > 100 µM (inactive)
GI50 (SF-295): > 100 µM (inactive)
GI50 (Malme-3M): > 100 µM (inactive)
GI50 (UO-31): > 100 µM (inactive)
GI50 (ACHN): > 100 µM (inactive)
GI50 (A498): > 100 µM (inactive)
GI50 (MOLT-4): > 100 µM (inactive)
GI50 (SR): > 100 µM (inactive)

O=C(NC1CCCCC1)N1CCNC1=S
GI50 (CCRF-CEM): > 100 µM (inactive)
GI50 (HCT-15): > 100 µM
GI50 (SN12C): > 100 µM (inactive)
GI50 (A549): > 100 µM (inactive)
GI50 (NCI-H23): > 100 µM (inactive)
GI50 (HT-29): > 100 µM (inactive)
GI50 (TK-10): > 100 µM (inactive)
GI50 (UACC-257): > 100 µM (inactive)
GI50 (SK-MEL-2): 2.94 µM (inactive)
GI50 (NCI-H226): 45.3 µM (inactive)
GI50 (MDA-N): > 100 µM (inactive)
GI50 (LOX IMVI): > 100 µM (inactive)
GI50 (HCC 2998): > 100 µM (inactive)
GI50 (SF-539): 65.6 µM (inactive)
GI50 (SW-620): > 100 µM (inactive)
GI50 (OVCAR-5): > 100 µM (inactive)
GI50 (OVCAR-3): > 100 µM (inactive)
GI50 (T47D): > 100 µM (inactive)
GI50 (DU-145): > 100 µM (inactive)
GI50 (MDA-MB-435): > 100 µM (inactive)
GI50 (OVCAR-8): > 100 µM (inactive)
GI50 (SK-MEL-28): > 100 µM (inactive)
GI50 (CAKI-1): > 100 µM (inactive)
GI50 (HCT-116): > 100 µM (inactive)
GI50 (NCI/ADR-RES): > 100 µM (inactive)
GI50 (HOP-92): > 100 µM (inactive)
GI50 (RPMI-8226): 65.6 µM (inactive)
GI50 (KM12): > 100 µM (inactive)
GI50 (M14): > 100 µM (inactive)
GI50 (RXF 393): 7.71 µM (inactive)
GI50 (EKVX): 9.53 µM (inactive)
GI50 (OVCAR-4): > 100 µM (inactive)
GI50 (SK-OV-3): > 100 µM (inactive)
GI50 (COLO 205): > 100 µM (inactive)
GI50 (MDA-MB-231): 3.2 µM (inactive)
GI50 (BT-549): 66.4 µM (inactive)
GI50 (SNB-75): > 100 µM (inactive)
GI50 (786-0): > 100 µM (inactive)
GI50 (Hs-578T): > 100 µM (inactive)
GI50 (HL-60): > 100 µM (inactive)
GI50 (K562): > 100 µM (inactive)
GI50 (IGROV-1): > 100 µM (inactive)
GI50 (SF-268): > 100 µM (inactive)
GI50 (NCI-H460): > 100 µM (inactive)
GI50 (NCI-H522): > 100 µM (inactive)
GI50 (SK-MEL-5): > 100 µM (inactive)
GI50 (U-251): 1.91 µM (inactive)
GI50 (HOP-62): > 100 µM (inactive)
GI50 (SF-295): > 100 µM (inactive)
GI50 (Malme-3M): > 100 µM (inactive)
GI50 (UO-31): > 100 µM (inactive)
GI50 (ACHN): > 100 µM (inactive)
GI50 (A498): > 100 µM (inactive)
GI50 (MOLT-4): > 100 µM (inactive)
GI50 (SR): > 100 µM (inactive)
